# Data as given in US7001905B2, “Substituted diarylamines as MEK inhibitors” (Warner-Lambert Company, priority 2000, dated 2006).
# Biological target: T1, MEK (Homo sapiens, UniProt Q02750)
# T1 construct: no tag is given for the 2D mutant
# Assay: in vitro MEK assay
# Assay type: biochemical
# Conditions: not given
# Protocol: For evaluation of direct MEK activity, 10 μg GST-MEK, is incubated in the presence of absence of test compound with 5 μg of a glutathione S-transferase fusion protein containing p44MAP kinase with a lysine to alanine mutation at position 71 (GST-MAPK-KA). This mutation eliminates kinase activity of MAPK, so only kinase activity attributed to the added MEK remains. Incubations are 15 minutes at 30° C. in a final volume of 50 μL containing 50 mM Tris (pH 7.5), […], 2, μM EGTA, and 10 μM [γ-^32P]ATP. The reaction is stopped by addition of Laemmli SDS sample buffer. Phosphorylated GST-MAPK-KA is resolved by electrophoresis on a 10% polyacrylamide gel. Radioactivity incorporated into GST-MAPK-KA is determined by autoradiography, and subsequent scintillation counting of excised bands.
# Alternatively, an artificially activated MEK containing serine to glutamate mutations at positions 218 and 222 (GST-MEK-2E) is used. When these two sites are phosphorylated, MEK activity is increased. Phosphorylation of these sites can be mimicked by mutation of the serine residues to glutamate. For this assay, 5 μg GST-MEK-2E is incubated with 5 μg GST-MAPK-KA for 15 minutes at 30° C. in the same reaction buffer as described above. Reactions are terminated and analyzed as above.
# T1 sequence (Q02750 whole entry S218D/S222D, form open): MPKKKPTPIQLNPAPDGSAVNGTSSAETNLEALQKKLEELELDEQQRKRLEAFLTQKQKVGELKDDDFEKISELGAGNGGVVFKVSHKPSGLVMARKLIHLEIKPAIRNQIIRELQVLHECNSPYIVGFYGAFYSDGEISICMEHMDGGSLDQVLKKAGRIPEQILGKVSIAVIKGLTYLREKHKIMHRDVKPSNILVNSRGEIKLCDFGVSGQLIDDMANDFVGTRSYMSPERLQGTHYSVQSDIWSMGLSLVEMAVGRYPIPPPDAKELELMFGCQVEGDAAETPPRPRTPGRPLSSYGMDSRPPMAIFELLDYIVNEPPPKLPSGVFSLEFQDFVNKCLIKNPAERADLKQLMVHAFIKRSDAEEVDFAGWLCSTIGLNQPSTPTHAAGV
row,IC50 [nM],Compound
1,300,"Cc1cc(I)ccc1Nc1c(C(=O)O)cc(C(=O)N2CCCC(CO)C2)c(F)c1F (stereo not shown) [Example 76, 3,4-Difluoro-5-[1-(3-hydroxymethyl-piperidin-1-yl)-methanoyl]-2-(4-iodo-2-methyl-phenylamino)-benzoic acid]"
2,150,Cc1cc(I)ccc1Nc1c(C(=O)O)cc(C(=O)N2CCSCC2)c(F)c1F [Example 99]
3,1100,"CCOC(=O)c1c[nH]nc1NC(=O)c1cc(C(=O)O)c(Nc2ccc(I)cc2C)c(F)c1F [Example 73, 3-({1-[5-Carboxy-2,3-difluoro-4-(4-iodo-2-methyl-phenylamino)-phenyl]-methanoyl}-amino)-1H-pyrazole-4-carboxylic acid ethyl ester]"
4,960,"CCn1nccc1NC(=O)c1cc(C(=O)O)c(Nc2ccc(I)cc2C)c(F)c1F [Example 84, N-(2-Ethyl-2H-pyrazol-3-yl)-4,5-difluoro-6-(4-iodo-2-methyl-phenylamino)-isophthalamic acid]"
5,2200,"Cc1cc(I)ccc1Nc1c(C(=O)O)cc(C(=O)N2CCCCC2CCO)c(F)c1F (stereo not shown) [Example 69, 3,4-Difluoro-5-{1-[2-(2-hydroxy-ethyl)-piperidin-1-yl]-methanoyl}-2-(4-iodo-2-methyl-phenylamino)-benzoic acid]"
6,970,"Cc1cc(I)ccc1Nc1c(C(=O)O)cc(C(=O)Nc2ccc(Cl)nc2)c(F)c1F [Example 85, N-(6-Chloro-pyridin-3-yl)-4,5-difluoro-6-(4-iodo-2-methyl-phenylamino)-isophthalamic acid]"

# Same assay, conditions: @ 1 μM
row,Compound,in vitro MEK assay: % inhibition @ 1 μM [%]
1,"Cc1cc(I)ccc1Nc1c(C(=O)O)cc(C(=O)N2CCCC(CO)C2)c(F)c1F (stereo not shown) [Example 76, 3,4-Difluoro-5-[1-(3-hydroxymethyl-piperidin-1-yl)-methanoyl]-2-(4-iodo-2-methyl-phenylamino)-benzoic acid]",88
2,Cc1cc(I)ccc1Nc1c(C(=O)O)cc(C(=O)N2CCSCC2)c(F)c1F [Example 99],82
3,"Cc1cc(I)ccc1N1COC(=O)c2cc(C(=O)NCCN3CCCC3)c(F)c(F)c21 [Example 11, 7,8-Difluoro-1-(4-iodo-2-methyl-phenyl)-4-oxo-1,4-dihydro-2H-3,1-benzoxazine-6-carboxylic acid (2-pyrrolidin-1-yl-ethyl)-amide]",33
4,"Cc1cc(I)ccc1N1COC(=O)c2cc(C(=O)N3CCNCC3)c(F)c(F)c21 [Example 56, 7,8-Difluoro-1-(4-iodo-2-methyl-phenyl)-6-(piperazine-1-carbonyl)-1,2-dihydro-3,1-benzoxazin-4-one]",1
5,"CCOC(=O)c1c[nH]nc1NC(=O)c1cc(C(=O)O)c(Nc2ccc(I)cc2C)c(F)c1F [Example 73, 3-({1-[5-Carboxy-2,3-difluoro-4-(4-iodo-2-methyl-phenylamino)-phenyl]-methanoyl}-amino)-1H-pyrazole-4-carboxylic acid ethyl ester]",86
6,"Cc1cc(I)ccc1Nc1c(C(=O)O)cc(C(=O)N(C)CCc2c[nH]c3ccccc23)c(F)c1F [Example 95, 4,5-Difluoro-N-[2-(1H-indol-3-yl)-ethyl]-6-(4-iodo-2-methyl-phenylamino)-N-methyl-isophthalamic acid]",77
7,"Cc1cc(I)ccc1Nc1c(C(=O)O)cc(C(=O)NCCCn2ccnc2)c(F)c1F [Example 90, 4,5-Difluoro-N-(3-imidazol-1-yl-propyl)-6-(4-iodo-2-methyl-phenylamino)-isophthalamic acid]",59
8,"Cc1cc(I)ccc1N1COC(=O)c2cc(C(=O)NCCOCCO)c(F)c(F)c21 [Example 18, 7,8-Difluoro-1-(4-iodo-2-methyl-phenyl)-4-1,4-dihydro-2H-3,1-benzoxazine-6-carboxylic acid [2-(2-hydroxy-ethoxy)-ethyl]-amide]",43
9,"Cc1cc(I)ccc1N1COC(=O)c2cc(C(=O)NCCCN3CCCC3=O)c(F)c(F)c21 [Example 12, 7,8-Difluoro-1-(4-iodo-2-methyl-phenyl)-4-oxo-1,4-dihydro-2H-3,1-benzoxazine-6-carboxylic acid [3-(2-oxo-pyrrolidin-1-y)-propyl]-amide]",21
10,Cc1cc(I)ccc1N1COC(=O)c2cc(C(=O)N3CCC(N4CCCC4)CC3)c(F)c(F)c21 [Example 41],7
11,"Cc1cc(I)ccc1Nc1c(C(=O)O)cc(C(=O)N2CCN(C)CC2)c(F)c1F [Example 64, 3,4-Difluoro-2-(4-iodo-2-methyl-phenylamino)-5-[1-(4-methyl-piperazin-1-yl)-methanoyl]-benzoic acid]",57
12,"Cc1cc(I)ccc1N1COC(=O)c2cc(C(=O)N3CCSCC3)c(F)c(F)c21 [Example 59, 7,8-Difluoro-1-(4-iodo-2-methyl-phenyl)-6-(thiomorpholine-4-carbonyl)-1,2-dihydro-3,1-benzoxzin-4-one]",75
13,"Cc1cc(I)ccc1Nc1c(C(=O)O)cc(C(=O)Nc2ccc(N(C)C)cc2)c(F)c1F [Example 92, N-(4-Dimethylamino-phenyl)-4,5-difluoro-6-(iodo-methyl-phenylamino)-isophthalamic acid]",80
14,"Cc1cc(I)ccc1N1COC(=O)c2cc(C(=O)NC3CCCC[C@@H]3O)c(F)c(F)c21 (stereo in doubt) [Example 60, 7,8-difluoro-1-(4-iodo-2-methyl-phenyl)-4-oxo-1,4-dihydro-2H-3,1-benzoxazine-6-carboxylic acid ((S)-2-hydroxy-cyclohexyl)-amide]",30
15,"CCn1nccc1NC(=O)c1cc(C(=O)O)c(Nc2ccc(I)cc2C)c(F)c1F [Example 84, N-(2-Ethyl-2H-pyrazol-3-yl)-4,5-difluoro-6-(4-iodo-2-methyl-phenylamino)-isophthalamic acid]",79
16,Cc1cc(I)ccc1N1COC(=O)c2cc(C(=O)N3CCN(C)CC3)c(F)c(F)c21 [Example 17],78
17,"Cc1cc(I)ccc1Nc1c(C(=O)O)cc(C(=O)N2CCCCC2CCO)c(F)c1F (stereo not shown) [Example 69, 3,4-Difluoro-5-{1-[2-(2-hydroxy-ethyl)-piperidin-1-yl]-methanoyl}-2-(4-iodo-2-methyl-phenylamino)-benzoic acid]",78
18,Cc1cc(I)ccc1N1COC(=O)c2cc(C(=O)N(C)C3CCN(C)CC3)c(F)c(F)c21 [Example 16],0
19,"Cc1cc(I)ccc1Nc1c(C(=O)O)cc(C(=O)Nc2ccc(Cl)nc2)c(F)c1F [Example 85, N-(6-Chloro-pyridin-3-yl)-4,5-difluoro-6-(4-iodo-2-methyl-phenylamino)-isophthalamic acid]",90

# Continued, values first:
row,in vitro MEK assay: % inhibition @ 1 μM [%],Compound
1,0,"COc1ccc2[nH]cc(CCNC(=O)c3cc4c(c(F)c3F)N(c3ccc(I)cc3C)COC4=O)c2c1 [Example 47, 7,8-Difluoro-1-(4-iodo-2-methyl-2-phenyl)-4-oxo-1,4-dihydro-2H-3,1-benzoxazine-6-carboxylic acid [2-(5-methoxy-1H-indol-3-yl)ethyl]-amide]"
2,41,"Cc1cc(I)ccc1N1COC(=O)c2cc(C(=O)N(C)CCO)c(F)c(F)c21 [Example 20, 7,8-Difluoro-1-(4-iodo-2-methyl-phenyl)-4-oxo-1,4-dihydro-2H-3,1-benzoxazine-6-carboxylic acid (2-hydroxy-ethyl)-methyl-amide]"
3,62,Cc1cc(I)ccc1N1COC(=O)c2cc(C(=O)Nc3ccc(Cl)nc3)c(F)c(F)c21 [Example 45]
4,72,"CCOC(=O)c1c[nH]nc1NC(=O)c1cc2c(c(F)c1F)N(c1ccc(I)cc1C)COC2=O [Example 34, 3-{[7,8-Difluoro-1-(4-iodo-2-methyl-phenyl)-4-oxo-1,4-dihydro-2H-3,1-benzoxazine-6-carbonyl]-amino}-1H-pyrazole-4-carboxylic acid ethyl ester]"
5,20,"Cc1cc(I)ccc1N1COC(=O)c2cc(C(=O)Nc3cccnc3)c(F)c(F)c21 [Example 37, 7,8-Difluoro-1-(4-iodo-2-methyl-phenyl)-4-oxo-1,4-dihydro-2H-3,1-benzoxazine-6-carboxylic acid pyridin-3-ylamide]"
6,5,"CCSc1nnc(NC(=O)c2cc3c(c(F)c2F)N(c2ccc(I)cc2C)COC3=O)s1 [Example 25, 7,8-Difluoro-1-(4-iodo-2-methyl-phenyl)-4-oxo-1,4-dihydro-2H-3,1-benzoxazine-6-carboxylic acid (5-ethylsulfanyl-1,3,4-thiadiazol-2-yl)-amide]"
7,61,"Cc1cc(I)ccc1N1COC(=O)c2cc(C(=O)Nc3ccc(N(C)C)cc3)c(F)c(F)c21 [Example 53, 7,8-Difluoro-1-(4-iodo-2-methyl-phenyl)-4-oxo-1,4-dihydro-2H-3,1-benzoxazine-6-carboxylic acid (4-dimethylamino-phenyl)amide]"
8,35,"Cc1cc(I)ccc1N1COC(=O)c2cc(C(=O)NCC3CCCO3)c(F)c(F)c21 (stereo not shown) [Example 57, 7,8-Difluoro-1-(4-iodo-2-methyl-phenyl)4-oxo-1,4-dihydro-2H-3,1-benzoxazine-6-carboxylic acid (tetrahydro-furan-2-ylmethyl)-amide]"
9,35,"Cc1cc(I)ccc1N1COC(=O)c2cc(C(=O)NCCCn3ccnc3)c(F)c(F)c21 [Example 52, 7,8-Difluoro-1-(4-iodo-2-methyl-phenyl)-4-oxo-1,4-dihydro-2H-3,1-benzoxazine-6-carboxylic acid (3-imidazol-1-yl-propyl)amide]"
10,41,"Cc1cc(I)ccc1N1COC(=O)c2cc(C(=O)N(C)CCc3c[nH]c4ccccc34)c(F)c(F)c21 [Example 55, 7,8-Difluoro-1-(4-iodo-2-methyl-phenyl)-4-oxo-1,4-dihydro-2H-3,1-benzoxazine-6-carboxylic acid [2-(1H-indol-3-yl)ethyl]-methyl-amide]"
11,26,"Cc1cc(I)ccc1N1COC(=O)c2cc(C(=O)Nc3nc4c(C)cccc4s3)c(F)c(F)c21 [Example 23, 7,8-Difluoro-1-(4-iodo-2-methyl-phenyl)-4-oxo-1,4-dihydro-2H-3,1-benzoxazine-6-carboxylic acid (4-methyl-benzothiazol-2-yl)-amide]"
12,12,"COc1ccc2c(CCNC(=O)c3cc4c(c(F)c3F)N(c3ccc(I)cc3C)COC4=O)c[nH]c2c1 [Example 48, 7,8-Difluoro-1-(4-iodo-2-methyl-phenyl)-4-oxo-1,4-dihydro-2H-3,1-benzoxazine-6-carboxylic acid [2-(6-methoxy-1H-indol-3-yl)-ethyl]-amide]"
